These are literature values, as cited in patent US20240148714A1, “Triple Negative Breast Cancer Treatment Method” (Exelixis, Inc., priority 2016, published 2024).

The data set has as its system mTNBC. The conditions noted are these: bevacizumab and onartuzumab combined, with paclitaxel; mTNBC patients without previous paclitaxel for metastatic disease; cited from earlier work.

For the substance bevacizumab, the clinical benefit result is reported as “no clinical benefit”.
Take onartuzumab: the clinical benefit result is “no clinical benefit”.
